From patent US10711041B2, “Lyophilisate containing a cyclic peptide of formula X1-[sequence]-X2” (priority 2013, dated 2020) come the findings set out here.

Data set [1] deals with T1, amilorid-sensitive Sodium Ion Channel (ENaC) (Homo sapiens, UniProt P37088).
T1 construct: Macroscopic Sodium Ion Currents were derived from human lung epithelian cells A549; endogenous in cells; host or cells: A549 human lung epithelial cells
T1 sequence (P37088 1-669): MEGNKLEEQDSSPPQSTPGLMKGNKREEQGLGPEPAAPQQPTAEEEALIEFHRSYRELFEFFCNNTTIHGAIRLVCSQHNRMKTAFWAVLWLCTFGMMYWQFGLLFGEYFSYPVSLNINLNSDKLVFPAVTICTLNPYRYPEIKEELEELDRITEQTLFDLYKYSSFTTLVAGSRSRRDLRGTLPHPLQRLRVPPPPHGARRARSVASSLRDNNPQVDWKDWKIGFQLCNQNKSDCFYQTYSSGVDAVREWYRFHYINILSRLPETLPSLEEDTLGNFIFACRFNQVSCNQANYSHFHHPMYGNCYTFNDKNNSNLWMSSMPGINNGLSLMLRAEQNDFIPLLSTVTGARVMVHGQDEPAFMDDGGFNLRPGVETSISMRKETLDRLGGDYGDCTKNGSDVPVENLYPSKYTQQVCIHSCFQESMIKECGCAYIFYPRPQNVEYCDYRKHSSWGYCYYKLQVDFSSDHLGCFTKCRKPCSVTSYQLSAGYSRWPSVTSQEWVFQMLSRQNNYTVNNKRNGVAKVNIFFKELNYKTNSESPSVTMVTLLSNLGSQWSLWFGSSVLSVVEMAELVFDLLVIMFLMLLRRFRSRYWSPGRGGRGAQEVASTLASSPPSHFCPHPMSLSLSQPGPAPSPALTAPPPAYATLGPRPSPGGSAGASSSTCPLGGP
T1 sequence (P51168 1-640 partner): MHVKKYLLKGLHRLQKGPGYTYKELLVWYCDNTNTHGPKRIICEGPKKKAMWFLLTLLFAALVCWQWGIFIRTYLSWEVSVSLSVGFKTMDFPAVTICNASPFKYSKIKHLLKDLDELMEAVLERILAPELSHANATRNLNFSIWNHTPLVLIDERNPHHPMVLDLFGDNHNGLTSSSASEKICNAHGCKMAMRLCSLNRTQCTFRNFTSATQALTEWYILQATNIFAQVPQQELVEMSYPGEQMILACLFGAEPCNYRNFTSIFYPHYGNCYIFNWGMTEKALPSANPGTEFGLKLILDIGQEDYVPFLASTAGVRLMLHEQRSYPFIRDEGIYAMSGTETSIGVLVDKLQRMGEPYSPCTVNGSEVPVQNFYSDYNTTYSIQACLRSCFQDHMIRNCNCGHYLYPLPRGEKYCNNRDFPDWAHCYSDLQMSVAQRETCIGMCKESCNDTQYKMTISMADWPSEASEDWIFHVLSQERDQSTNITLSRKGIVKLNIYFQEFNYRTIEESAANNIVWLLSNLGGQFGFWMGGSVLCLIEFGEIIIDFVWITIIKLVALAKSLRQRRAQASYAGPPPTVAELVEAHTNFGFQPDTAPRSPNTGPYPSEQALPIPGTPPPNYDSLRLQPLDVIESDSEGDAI
T1 sequence (P51170 1-649 partner): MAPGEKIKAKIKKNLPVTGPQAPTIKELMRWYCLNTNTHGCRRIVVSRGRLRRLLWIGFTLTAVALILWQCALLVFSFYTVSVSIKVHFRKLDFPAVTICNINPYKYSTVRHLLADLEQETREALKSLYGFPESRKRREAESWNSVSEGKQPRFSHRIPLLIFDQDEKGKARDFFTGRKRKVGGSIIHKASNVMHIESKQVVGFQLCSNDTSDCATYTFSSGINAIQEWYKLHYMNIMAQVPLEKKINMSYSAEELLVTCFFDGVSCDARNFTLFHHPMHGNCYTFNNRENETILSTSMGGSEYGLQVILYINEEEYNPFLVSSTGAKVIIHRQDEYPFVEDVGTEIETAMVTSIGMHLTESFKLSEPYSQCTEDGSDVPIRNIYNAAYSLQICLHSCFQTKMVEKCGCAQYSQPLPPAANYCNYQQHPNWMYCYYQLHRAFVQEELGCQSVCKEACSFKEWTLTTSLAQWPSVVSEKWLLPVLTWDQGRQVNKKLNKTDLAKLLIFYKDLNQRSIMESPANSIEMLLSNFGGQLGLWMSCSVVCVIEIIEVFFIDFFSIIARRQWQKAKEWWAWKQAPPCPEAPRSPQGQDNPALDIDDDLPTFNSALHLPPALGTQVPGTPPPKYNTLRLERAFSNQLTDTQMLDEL
The experiment in a line: Patch Clamp whole cell sodium current in deglycosylated (PNGase F) and untreated A549 cells. The format is cell-based. The settings on record: pre-treatment with PNGase F, peptide 240 nM, Eh = −100 mV. As to the method: […] After control recordings, 240 nM of the peptide of amino acid sequence SEQ ID NO:1 was added to the bath solution. […] Whole cell currents were recorded at Eh=−100 mV. The concentration of the peptides of amino acid sequence SEQ ID NO:1 to SEQ ID NO:7 in the bath solution was 240 nM.
For orientation: In patch-clamp work, channel activity is measured electrically.

Data set [2] in a line: Stability investigation of the lyophilisate (visual inspection, reverse HPLC). The data set is classed as physicochemical. Here is the method: For that the lyophilisate was stored up to 24 months at 2 to 8° C. and up to 6 months at 25° C. at 60% relative humidity. Stability was investigated at different time points during that period. In particular the appearance, contents, as well as purity of the cyclic peptides were investigated. For that laboratory-common analytical processes were used, such as e.g. visual inspection and reverse HPLC.

Where [3] appears, read: storage 2-8° C., T = 0 to T = 24 M.
[4] abbreviates: storage 25° C./60% rH, T = 0 to T = 6 M.

The structures appear in SMILES notation.

Consider `C[C@@H]1NC(=O)CNC(=O)[C@H](CCC(=O)O)NC(=O)[C@@H]2CCCN2C(=O)[C@H]([C@@H](C)O)NC(=O)[C@H](CCC(=O)O)NC(=O)[C@H](CCCNC(=N)N)NC(=O)[C@H](CCC(N)=O)NC(=O)CNC(=O)CCNC(=O)CC[C@@H](C(=O)O)NC(=O)[C@H](Cc2ccc(O)cc2)NC(=O)[C@H](Cc2c[nH]c3ccccc23)NC(=O)[C@@H]2CCCN2C(=O)[C@H](CCCCN)NC(=O)[C@H](C)NC(=O)[C@H](CCC(=O)O)NC1=O` [SEQ ID NO: 6], for which the “whole cell sodium current” value in data set [1] is given as 19.9 pA (n = 3). Besides, the Amount/Contents of lyophilisate in data set [2] (storage 2-8° C., T = 0) was determined as 100%; in data set [2] (storage 2-8° C., T = 24 M) it was 99%; in data set [2] (storage 25° C./60% rH, T = 0) it was 100%; in data set [2] (storage 25° C./60% rH, T = 6 M) it was 99%. The “Purity of lyophilisate (stability study)” value in data set [2] (storage 2-8° C., T = 0) stood at 99%; in data set [2] (storage 2-8° C., T = 24 M), 99%; in data set [2] (storage 25° C./60% rH, T = 0), 99%; in data set [2] (storage 25° C./60% rH, T = 6 M), 98%. Besides, the Appearence of lyophilisate entry in data set [2] (setting [3]) and in data set [2] (setting [4]) was “white powder” each time.
In the case of `C[C@@H]1NC(=O)CNC(=O)[C@H](CCC(=O)O)NC(=O)[C@@H]2CCCN2C(=O)[C@H]([C@@H](C)O)NC(=O)[C@H](CCC(=O)O)NC(=O)[C@H](CCCNC(=N)N)NC(=O)[C@H](CCC(N)=O)NC(=O)CNC(=O)[C@@H]2CCCN2C(=O)[C@H](CO)NC(=O)[C@@H](N)CCCCNC(=O)CC[C@@H](C(=O)O)NC(=O)[C@H](Cc2ccc(O)cc2)NC(=O)[C@H](Cc2c[nH]c3ccccc23)NC(=O)[C@@H]2CCCN2C(=O)[C@H](CCCCN)NC(=O)[C@H](C)NC(=O)[C@H](CCC(=O)O)NC1=O` [SEQ ID NO: 2], the “whole cell sodium current” value in data set [1] is 21.3 pA (n = 3). Further, the Amount/Contents of lyophilisate in data set [2] (storage 2-8° C., T = 0) is given as 100%; in data set [2] (storage 2-8° C., T = 24 M), 99%; in data set [2] (storage 25° C./60% rH, T = 0), 100%; in data set [2] (storage 25° C./60% rH, T = 6 M), 99%. Also, the “Purity of lyophilisate (stability study)” value in data set [2] (storage 2-8° C., T = 0) worked out at 96%; in data set [2] (storage 2-8° C., T = 24 M) it was 96%; in data set [2] (storage 25° C./60% rH, T = 0) it was 96%; in data set [2] (storage 25° C./60% rH, T = 6 M), 95%. For the same compound, the Appearence of lyophilisate entry in data set [2] (setting [3]) and in data set [2] (setting [4]) was “white powder” in each case.
With `C[C@@H]1NC(=O)CNC(=O)[C@H](CCC(=O)O)NC(=O)[C@@H]2CCCN2C(=O)[C@H]([C@@H](C)O)NC(=O)[C@H](CCC(=O)O)NC(=O)[C@H](CCCNC(=N)N)NC(=O)[C@H](CCC(N)=O)NC(=O)CNC(=O)[C@@H](N)CCCCNC(=O)CNC(=O)[C@H](Cc2ccc(O)cc2)NC(=O)[C@H](Cc2c[nH]c3ccccc23)NC(=O)[C@@H]2CCCN2C(=O)[C@H](CCCCN)NC(=O)[C@H](C)NC(=O)[C@H](CCC(=O)O)NC1=O` [SEQ ID NO: 3], the “whole cell sodium current” value in data set [1] is 20.6 pA (n = 3). Besides, the Amount/Contents of lyophilisate in data set [2] (storage 2-8° C., T = 0) amounted to 100%; in data set [2] (storage 2-8° C., T = 24 M), 99%; in data set [2] (storage 25° C./60% rH, T = 0), 100%; in data set [2] (storage 25° C./60% rH, T = 6 M), 99%. In addition, the “Purity of lyophilisate (stability study)” value was determined as 98% in data set [2] (storage 2-8° C., T = 0); 98% in data set [2] (storage 2-8° C., T = 24 M); 98% in data set [2] (storage 25° C./60% rH, T = 0); 97% in data set [2] (storage 25° C./60% rH, T = 6 M). Also, the Appearence of lyophilisate entry in data set [2] (setting [3]) and in data set [2] (setting [4]) was “white powder” throughout.
On to `C[C@@H]1NC(=O)CNC(=O)[C@H](CCC(=O)O)NC(=O)[C@@H]2CCCN2C(=O)[C@H]([C@@H](C)O)NC(=O)[C@H](CCC(=O)O)NC(=O)[C@H](CCCNC(=N)N)NC(=O)[C@H](CCC(N)=O)NC(=O)CNC(=O)CCCNC(=O)C[C@@H](C(=O)O)NC(=O)[C@H](Cc2ccc(O)cc2)NC(=O)[C@H](Cc2c[nH]c3ccccc23)NC(=O)[C@@H]2CCCN2C(=O)[C@H](CCCCN)NC(=O)[C@H](C)NC(=O)[C@H](CCC(=O)O)NC1=O` [SEQ ID NO: 5], for which, in data set [1], the “whole cell sodium current” value is on record as 22.4 pA (n = 3). The Amount/Contents of lyophilisate in data set [2] (storage 2-8° C., T = 0) was found to be 100%; in data set [2] (storage 2-8° C., T = 24 M), 99%; in data set [2] (storage 25° C./60% rH, T = 0), 100%; in data set [2] (storage 25° C./60% rH, T = 6 M), 99%. In addition, the “Purity of lyophilisate (stability study)” value in data set [2] (storage 2-8° C., T = 0) is on record as 99%; in data set [2] (storage 2-8° C., T = 24 M) it was 99%; in data set [2] (storage 25° C./60% rH, T = 0), 99%; in data set [2] (storage 25° C./60% rH, T = 6 M), 98%. The Appearence of lyophilisate entry in data set [2] (setting [3]) and in data set [2] (setting [4]) was “white powder” in each case.
As for `C[C@@H]1NC(=O)CNC(=O)[C@H](CCC(=O)O)NC(=O)[C@@H]2CCCN2C(=O)[C@H]([C@@H](C)O)NC(=O)[C@H](CCC(=O)O)NC(=O)[C@H](CCCNC(=N)N)NC(=O)[C@H](CCC(N)=O)NC(=O)CNC(=O)[C@@H](N)CCCNC(=O)CNC(=O)[C@H](Cc2ccc(O)cc2)NC(=O)[C@H](Cc2c[nH]c3ccccc23)NC(=O)[C@@H]2CCCN2C(=O)[C@H](CCCCN)NC(=O)[C@H](C)NC(=O)[C@H](CCC(=O)O)NC1=O` [SEQ ID NO: 4], the “whole cell sodium current” value in data set [1] is given as 22.5 pA (n = 3). Moreover, the Amount/Contents of lyophilisate turned out to be 100% in data set [2] (storage 2-8° C., T = 0); 99% in data set [2] (storage 2-8° C., T = 24 M); 100% in data set [2] (storage 25° C./60% rH, T = 0); 99% in data set [2] (storage 25° C./60% rH, T = 6 M). Further, the “Purity of lyophilisate (stability study)” value in data set [2] (storage 2-8° C., T = 0) is recorded as 97%; in data set [2] (storage 2-8° C., T = 24 M), 97%; in data set [2] (storage 25° C./60% rH, T = 0), 97%; in data set [2] (storage 25° C./60% rH, T = 6 M) it was 96%. Besides, the Appearence of lyophilisate entry in data set [2] (setting [3]) and in data set [2] (setting [4]) was “white powder” throughout.
